One data set concerns Male SD/TAC rats. Kind of data set: animal or person. The note with it: for response vs control in vivo at 3 µmol/kg / minimal effective dose / ED (max): Rattus norvegicus; for minimal effective dose: read-out: Lovest Dose at which increased diuresis is achieved nMol/kg. I.e. >1.5 SC; for ED (max): read-out: SC Dose at which max diuresis is achieved nMol/kg. The data set is classed as in vivo, rat.

For data set [1] the following is noted: rat, in vivo.
A further data set deals with male NMRI mice. The conditions noted are these: mouse, in vivo, iv; for dose at which the mice died after injection / time to death after injection: male, NMRI.
A further data set relates to mice. The note with it: mouse, in vivo, iv.
Another data set can be described thus: in vivo. The conditions noted are these: male, Sprague-Dawley, rat.

Counter-ions that a name gives are not always drawn. Like-named read-outs stand apart in the source and are kept apart here.

Consider `CC(C)[C@H]1CC[C@@H](N2CCC3(CC2)C(=O)N(CCCCCCCCCN2CN(c4ccccc4)C4(CCN([C@H]5CC[C@@H](C(C)C)CC5)CC4)C2=O)CN3c2ccccc2)CC1` [Compound 25, 1,9-bis-(cis-8-(4-isopropyl-cyclohexyl)-1-phenyl-1,3,8-triaza-spiro[4.5]decan-4-one-3-yl)-nonane], for which, in the data set on Male SD/TAC rats (po, read-out: PO max effect.), the response vs control in vivo at 3 µmol/kg came out at 250%. Further, in the data set on Male SD/TAC rats (sc), the minimal effective dose turned out to be 0.01 µmol/kg and the ED (max) turned out to be 1000 nmol/kg. Besides, in the data set on Male SD/TAC rats (sc, read-out: SC max effect.), the response vs control in vivo at 3 µmol/kg was found to be 250%. Also, the “Lovest Dose at which increased diuresis is achieved nMol/kg. I.e. >1.5 IV” value in the data set on Male SD/TAC rats (rat, in vivo) is listed as 10^−5 nMol/kg. In the data set with Male SD/TAC rats (rat, in vivo, po), the “Lovest Dose at which increased diuresis is achieved nMol/kg. I.e. >1.5 PO” value came to 10 nmol/kg and the “PO Dose at which max diuresis is achieved” value worked out at 1000 nmol/kg.

`CC(C)[C@H]1CC[C@@H](N2CCC3(CC2)C(=O)N(CCCNCCNCCNCCCNCCN)CN3c2ccccc2)CC1` [Compound 33, cis-8-(4-Isopropyl-cyclohexyl)-3-(4,7,10,14,17-pentaazaheptadecyl)-1-phenyl-1,3,8-triaza-spiro[4.5]decan-4-one]: the response vs control in vivo at 3 µmol/kg in the data set with Male SD/TAC rats (po, read-out: PO max effect.) was found to be 160%. In the data set with Male SD/TAC rats (sc), the minimal effective dose worked out at 0.0001 µmol/kg and the ED (max) is 1000 nmol/kg. For the same compound, in the data set with Male SD/TAC rats (sc, read-out: SC max effect.), the response vs control in vivo at 3 µmol/kg was found to be 330%. In the data set on Male SD/TAC rats (rat, in vivo, po), the “Lovest Dose at which increased diuresis is achieved nMol/kg. I.e. >1.5 PO” value is 1000 nmol/kg and the “PO Dose at which max diuresis is achieved” value was 1000 nmol/kg.

With “cis-(8-(4-Isopropyl-cyclohexyl)-1-phenyl-1,3,8-triaza-spiro[4.5]decan-4-one)-acetic acid [Compound 11]”, in data set [1], the “oral availability (in words)” value is “orally available”. Further, in the data set with male NMRI mice, the “gridshock response versus vehicle” value is on record as “No statistical significant difference”. Moreover, in the data set with mice, the “CNS motility* (Minimal effective dose nmol/kg)” value (shortened to “CNS motility*”) is >10000 nmol/kg and the “locomotor activity / activity count during the first 30 minutes versus vehicle” value is listed as “No statistical significant difference”. Moreover, the “Lovest Dose at which increased diuresis is achieved nMol/kg. I.e. >1.5 IV” value with Male SD/TAC rats (rat, in vivo) stood at 10 nmol/kg. Besides, in the data set on Male SD/TAC rats (rat, in vivo, sc), the “Lovest Dose at which increased diuresis is achieved nMol/kg. I.e. >1.5 SC” value came to 1000 nmol/kg, the “SC Dose at which max diuresis is achieved” value was found to be 1000 nmol/kg and the SC max effect. is recorded as 2.0.

On to `CC(C)[C@H]1CC[C@@H](N2CCC3(CC2)C(=O)N(CCCN2CCCNCCNCCCNCC2)CN3c2ccccc2)CC1` [Compound 36, cis-8-(4-Isopropyl-cyclohexyl)-1-phenyl-3-[3-(1,4,8,11-tetraaza-cyclotetradec-1-yl)-propyl]-1,3,8-triaza-spiro[4.5]decan-4-one], for which, in “in vivo”, the half-life (as a rule, the time needed for the level to fall by half in the phase considered) is 2 h. Further, in the data set on male NMRI mice, the “dose at which the mice died after injection” value is 2000 nmol/kg, the “time to death after injection” value is “approximately 1” and the “CNS grid shock* (Minimal effective dose nmol/kg)” value was 1000 nmol/kg. Also, the “CNS motility*” value in the data set with mice came to 100 nmol/kg. For the same compound, in the data set on Male SD/TAC rats (po, read-out: PO max effect.), the response vs control in vivo at 3 µmol/kg was found to be 240%. The “Lovest Dose at which increased diuresis is achieved nMol/kg. I.e. >1.5 IV” value with Male SD/TAC rats (rat, in vivo) was determined as 10 nmol/kg. For the same compound, in the data set with Male SD/TAC rats (rat, in vivo, po), the “Lovest Dose at which increased diuresis is achieved nMol/kg. I.e. >1.5 PO” value worked out at 1000 nmol/kg and the “PO Dose at which max diuresis is achieved” value was 1000 nmol/kg.

For the compound “cis and trans-3-(Methoxycarbonylmethyl-)-8-(4-isopropyl-cyclohexyl)-1-phenyl-1,3,8-triaza-spiro[4.5]decan-4-one [Compound 10]”, in the data set with Male SD/TAC rats (rat, in vivo, sc), the “Lovest Dose at which increased diuresis is achieved nMol/kg. I.e. >1.5 SC” value came to 1000 nmol/kg, the “SC Dose at which max diuresis is achieved” value was determined as 1000 nmol/kg and the SC max effect. is given as 1.9.

As for `O=C(O)C(F)(F)F` [TFA, Trifluoroacetic acid], the “gridshock response versus vehicle” value in the data set with male NMRI mice was “No statistical significant difference”. In addition, in the data set on mice, the “locomotor activity / activity count during the first 30 minutes versus vehicle” value is recorded as “No statistical significant difference”.

Regarding `CC(C)[C@H]1CC[C@@H](N2CCC3(CC2)C(=O)N(CCCCCCNCCNCCCNCCNCCN)CN3c2ccccc2)CC1` [Compound 34, cis-8-(4-Isopropyl-cyclohexyl)-3-(7,10,14,17,20-pentaazaeicosanyl)-1-phenyl-1,3,8-triaza-spiro[4.5]decan-4-one], in the data set on male NMRI mice, the “dose at which the mice died after injection” value was 2000 nmol/kg, the “time to death after injection” value is given as “approximately 2 minutes”, the “CNS grid shock* (Minimal effective dose nmol/kg)” value stood at 300 nmol/kg and the “gridshock response versus vehicle” value is reported as “No statistical significant difference”. Moreover, in the data set on mice, the “CNS motility*” value is reported as 100 nmol/kg, the “dose with statistical significant decrease in locomotor activity during the first 15 minutes” value worked out at 1000 nmol/kg and the “locomotor activity / activity count during the first 30 minutes versus vehicle” value is listed as “No statistical significant difference”. Also, the response vs control in vivo at 3 µmol/kg with Male SD/TAC rats (po, read-out: PO max effect.) was determined as 200%. Moreover, in the data set with Male SD/TAC rats (sc), the minimal effective dose is 0.01 µmol/kg and the ED (max) was found to be 100 nmol/kg. In the data set with Male SD/TAC rats (sc, read-out: SC max effect.), the response vs control in vivo at 3 µmol/kg stood at 490%. For the same compound, in the data set with Male SD/TAC rats (rat, in vivo), the “Lovest Dose at which increased diuresis is achieved nMol/kg. I.e. >1.5 IV” value came out at 0.0001 nmol/kg. Moreover, in the data set on Male SD/TAC rats (rat, in vivo, po), the “Lovest Dose at which increased diuresis is achieved nMol/kg. I.e. >1.5 PO” value came to 0.1 nmol/kg and the “PO Dose at which max diuresis is achieved nMol/kg” value is given as 0.1; 10 nMol/kg.

The record behind these values is patent publication US20080287478A1 (priority 2003, published 2008).
